# Data: ChEMBL document CHEMBL1201862, “PubChem BioAssay data set” (2004)
# Active and inactive are the calls of the source.
# Legend:
# [1] = target: T1, Tyrosyl-DNA phosphodiesterase 2 (Homo sapiens, UniProt O95551); experiment: human TDP2 enzyme inhibitors, dose response, biochemical, epi absorbance, IC50 (AID 743297)
# T1 sequence (O95551 whole entry): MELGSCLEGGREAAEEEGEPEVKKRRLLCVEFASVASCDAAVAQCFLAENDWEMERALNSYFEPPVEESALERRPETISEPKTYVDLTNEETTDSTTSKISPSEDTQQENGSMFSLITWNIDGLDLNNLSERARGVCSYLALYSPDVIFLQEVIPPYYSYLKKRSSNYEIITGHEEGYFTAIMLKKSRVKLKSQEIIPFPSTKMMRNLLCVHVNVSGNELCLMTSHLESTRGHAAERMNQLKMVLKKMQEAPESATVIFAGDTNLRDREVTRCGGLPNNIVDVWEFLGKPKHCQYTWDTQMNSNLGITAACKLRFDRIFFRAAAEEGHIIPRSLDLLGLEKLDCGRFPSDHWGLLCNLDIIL
# [2] = target: NAD-dependent protein deacylase sirtuin-5, mitochondrial (Homo sapiens, UniProt Q9NXA8); experiment: SIRT5 desuccinylase inhibitors, dose response, biochemical, fluorescence imaging, cherry-pick, set 5 (AID 720591);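 further: desuccinylation of succinyl peptide AMC substrate read as fluorescence after trypsin release; potency of inhibitors that lower fluorescence and may act on trypsin instead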
# [3] = target: T2, Methionyl-tRNA synthetase, putative (Trypanosoma brucei brucei, UniProt Q38C91); format: functional, Trypanosoma brucei brucei strain 927/4 GUTat10.1;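 further: Read-out by fluorescence polarization, run as a confirmatory high-throughput counterscreen; potency of MetRS inhibitors measured by reduced AMP formation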
# T2 sequence (Q38C91 whole entry): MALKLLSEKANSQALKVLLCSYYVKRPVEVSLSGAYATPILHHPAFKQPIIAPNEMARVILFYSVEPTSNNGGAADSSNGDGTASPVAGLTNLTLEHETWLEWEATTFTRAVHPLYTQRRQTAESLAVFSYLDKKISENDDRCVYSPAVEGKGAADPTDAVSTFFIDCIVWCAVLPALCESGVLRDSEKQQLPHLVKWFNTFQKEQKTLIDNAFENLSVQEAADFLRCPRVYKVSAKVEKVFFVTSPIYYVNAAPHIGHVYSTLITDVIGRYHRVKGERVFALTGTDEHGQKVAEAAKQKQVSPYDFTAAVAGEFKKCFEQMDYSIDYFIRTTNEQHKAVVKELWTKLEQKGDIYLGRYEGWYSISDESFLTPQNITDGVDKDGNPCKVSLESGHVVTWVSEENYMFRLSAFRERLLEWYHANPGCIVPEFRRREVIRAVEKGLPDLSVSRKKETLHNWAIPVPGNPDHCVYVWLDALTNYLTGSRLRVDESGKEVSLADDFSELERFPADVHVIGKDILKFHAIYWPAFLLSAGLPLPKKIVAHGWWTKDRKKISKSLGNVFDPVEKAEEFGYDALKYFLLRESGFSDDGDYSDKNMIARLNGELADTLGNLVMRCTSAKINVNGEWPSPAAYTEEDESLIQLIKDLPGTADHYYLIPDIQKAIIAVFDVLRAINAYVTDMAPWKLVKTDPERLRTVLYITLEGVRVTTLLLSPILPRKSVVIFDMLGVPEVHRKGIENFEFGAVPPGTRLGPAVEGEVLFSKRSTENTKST
# [4] = target: T3, Long-chain-fatty-acid--AMP ligase FadD28 (Mycobacterium tuberculosis, UniProt P9WQ59); experiment: Fluorescence polarization aasay to screen for inhibitors that compete for the binding of FadD28 to a bisubstrate Measured in Biochemical System Using Plate Reader - 2147-01_Inhibitor_Dose_CherryPick_Activity.; format: functional, Mycobacterium tuberculosis H37Rv
# T3 sequence (P9WQ59 whole entry): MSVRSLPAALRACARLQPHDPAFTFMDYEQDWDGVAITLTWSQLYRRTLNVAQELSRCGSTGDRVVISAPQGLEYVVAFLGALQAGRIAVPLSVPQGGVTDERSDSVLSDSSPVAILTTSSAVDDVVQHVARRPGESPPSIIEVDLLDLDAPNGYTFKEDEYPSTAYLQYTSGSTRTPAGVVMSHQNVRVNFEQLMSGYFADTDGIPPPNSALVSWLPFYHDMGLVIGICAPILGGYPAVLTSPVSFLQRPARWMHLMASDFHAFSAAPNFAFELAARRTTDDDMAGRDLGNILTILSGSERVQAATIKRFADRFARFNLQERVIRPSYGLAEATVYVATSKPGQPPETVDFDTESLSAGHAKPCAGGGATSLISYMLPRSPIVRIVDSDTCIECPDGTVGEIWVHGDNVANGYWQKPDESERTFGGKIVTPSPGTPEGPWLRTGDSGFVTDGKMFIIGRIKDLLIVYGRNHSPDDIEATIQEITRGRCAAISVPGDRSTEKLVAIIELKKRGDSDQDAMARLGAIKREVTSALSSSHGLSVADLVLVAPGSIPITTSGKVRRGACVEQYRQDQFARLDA
# [5] = Counterscreen for inhibitors of Trypanosoma brucei methionyl tRNA synthetase (MetRS): Luminescence-based cell-based high throughput dose response assay to identify compounds that are cytotoxic to Jurkat human T lymphocyte cells.; format: functional
# cells [6] = format: functional, cell-based
# cells [7] = format: functional, cell-based; remark: listed apart in the source
# [8] = target: T4, Trace amine-associated receptor 1 (Homo sapiens, UniProt Q96RJ0); experiment: Fluorescence-based cell-based high throughput dose response assay to identify agonists of the human trace amine associated receptor 1 (TAAR1).; format: functional
# T4 sequence (Q96RJ0 whole entry): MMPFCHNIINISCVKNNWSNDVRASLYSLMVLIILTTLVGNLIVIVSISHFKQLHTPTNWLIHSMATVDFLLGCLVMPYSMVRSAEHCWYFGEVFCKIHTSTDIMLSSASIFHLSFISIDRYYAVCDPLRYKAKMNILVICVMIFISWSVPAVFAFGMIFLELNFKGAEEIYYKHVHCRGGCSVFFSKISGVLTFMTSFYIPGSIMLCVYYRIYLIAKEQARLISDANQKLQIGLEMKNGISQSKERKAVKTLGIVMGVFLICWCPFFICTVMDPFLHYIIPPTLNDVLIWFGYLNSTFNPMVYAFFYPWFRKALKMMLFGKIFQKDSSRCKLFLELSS
# [9] = target: T4, Trace amine-associated receptor 1; experiment: Counterscreen for agonists of the human trace amine associated receptor 1 (hTAAR1): Fluorescence-based cell-based high throughput dose response assay to identify hTAAR1 agonist that also desensitize TAAR1 receptor response.; format: functional
# Kallikrein-7 = Kallikrein-7 (Homo sapiens, UniProt P49862); experiment: Fluorescence Intensity-based biochemical primary high throughput dose response assay to identify activators of kallikrein-7 (K7) zymogen.
# [10] = target: T5, Sentrin-specific protease 1 (Homo sapiens, UniProt Q9P0U3); experiment: potency of human SENP1 inhibitors, dose response, biochemical, kinetic FRET (AID 651697); format: functional; conditions: read-out: IC50_Mean
# T5 sequence (Q9P0U3 whole entry): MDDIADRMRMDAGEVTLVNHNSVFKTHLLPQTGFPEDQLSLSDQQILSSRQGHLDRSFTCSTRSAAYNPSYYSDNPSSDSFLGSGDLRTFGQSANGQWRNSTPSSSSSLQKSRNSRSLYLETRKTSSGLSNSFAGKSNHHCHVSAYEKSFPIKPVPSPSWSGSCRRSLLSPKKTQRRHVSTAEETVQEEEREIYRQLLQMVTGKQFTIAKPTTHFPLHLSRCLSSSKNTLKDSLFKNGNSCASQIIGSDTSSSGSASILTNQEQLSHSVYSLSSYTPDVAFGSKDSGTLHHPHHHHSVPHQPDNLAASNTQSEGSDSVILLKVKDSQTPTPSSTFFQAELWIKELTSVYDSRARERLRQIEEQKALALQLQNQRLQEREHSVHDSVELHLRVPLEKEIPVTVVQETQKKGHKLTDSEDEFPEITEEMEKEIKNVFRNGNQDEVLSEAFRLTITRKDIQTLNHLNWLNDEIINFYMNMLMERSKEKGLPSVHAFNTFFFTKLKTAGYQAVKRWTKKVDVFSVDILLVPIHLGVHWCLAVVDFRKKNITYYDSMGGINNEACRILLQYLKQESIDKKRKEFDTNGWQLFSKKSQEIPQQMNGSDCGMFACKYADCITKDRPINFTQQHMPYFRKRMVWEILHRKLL
# [11] = target: FAD-linked sulfhydryl oxidase ALR (Homo sapiens, UniProt P55789); experiment: inhibitors of human ALR sulfhydryl oxidase, dose response, biochemical, H2O2 detection, luminescence, cherry-pick (AID 493248)
# [12] = target: T5, Sentrin-specific protease 1; experiment: Dose response confirmation of small molecule inhibitors of the catalytic domain of the SUMO protease, SENP1 in a FRET assay.; format: functional; conditions: read-out: IC50_Mean
# Aurora kinase A = target: T6, Aurora kinase A (Homo sapiens, UniProt O14965); format: functional;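 further: value from the Navigating the Kinome kinase panel profiling, panel entry STK6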
# T6 sequence (O14965 whole entry): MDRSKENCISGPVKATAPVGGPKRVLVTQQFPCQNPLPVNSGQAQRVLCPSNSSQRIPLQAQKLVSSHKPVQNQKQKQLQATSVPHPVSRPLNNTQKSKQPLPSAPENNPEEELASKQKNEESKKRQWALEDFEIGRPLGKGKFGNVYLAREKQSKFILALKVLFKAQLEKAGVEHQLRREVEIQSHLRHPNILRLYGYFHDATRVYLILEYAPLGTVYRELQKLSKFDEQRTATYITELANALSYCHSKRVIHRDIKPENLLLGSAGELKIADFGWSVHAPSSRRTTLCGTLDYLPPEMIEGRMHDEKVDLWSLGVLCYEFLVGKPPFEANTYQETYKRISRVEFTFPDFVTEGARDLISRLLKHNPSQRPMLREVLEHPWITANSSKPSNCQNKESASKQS
# Aurora kinase B = Aurora kinase B (Homo sapiens, UniProt Q96GD4); format: functional
# [13] = intracellular Trypanosoma cruzi inhibitors in host cells – cell-based, plate reader, cherry-pick samples, set 3, dose response (AID 651818); format: functional;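 further: compounds incubated with infected cells for about four days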
# [14] = miR-122 activators in hepatoma reporter cells, dose response, cell-based, Huh7 psiCHECK-miR122, Renilla luciferase, cherry-picked (AID 651956); format: functional;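 further: huh7 hepatoma cells stably carrying a psiCHECK-2 miR-122 sensor plasmid; renilla luciferase signal reporting endogenous miR-122 activity after 48 h compound exposure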
# [15] = cytotoxicity in OVCAR8 ovarian cancer cells, dose response, PAX8 project, cell-based, plate reader, dry powder samples (AID 743197); format: functional; conditions: OVCAR-8
# Paired box protein Pax-8 = Paired box protein Pax-8 (Homo sapiens, UniProt Q06710); experiment: inhibitors of PAX8-driven TPO luciferase reporter, dose response, RMG-I cells, cherry-pick (AID 687027); format: functional, cell-based;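 further: luciferase reporter driven by Pax8 target thyroperoxidase promoter measured by SteadyGlo luminescence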
# [16] = non-specific cell cytotoxicity, dose response, cytotoxicity control for PAX8 inhibitor project, plate reader, dry powder samples (AID 743021); format: functional, cell-based
# [17] = NIH:OVCAR-3 ovarian cancer cell cytotoxicity, dose response, PAX8 inhibitor project, plate reader, dry powder samples (AID 743044); format: functional, cell-based
# Kallikrein-7, sequence (P49862 whole entry): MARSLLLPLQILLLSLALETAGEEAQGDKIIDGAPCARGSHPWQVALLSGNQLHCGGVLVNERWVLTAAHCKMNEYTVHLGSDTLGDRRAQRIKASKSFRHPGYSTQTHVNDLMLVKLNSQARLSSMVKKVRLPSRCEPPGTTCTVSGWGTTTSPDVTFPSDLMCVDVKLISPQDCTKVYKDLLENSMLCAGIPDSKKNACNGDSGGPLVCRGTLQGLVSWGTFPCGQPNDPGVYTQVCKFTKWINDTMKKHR
# Paired box protein Pax-8, sequence (Q06710 whole entry): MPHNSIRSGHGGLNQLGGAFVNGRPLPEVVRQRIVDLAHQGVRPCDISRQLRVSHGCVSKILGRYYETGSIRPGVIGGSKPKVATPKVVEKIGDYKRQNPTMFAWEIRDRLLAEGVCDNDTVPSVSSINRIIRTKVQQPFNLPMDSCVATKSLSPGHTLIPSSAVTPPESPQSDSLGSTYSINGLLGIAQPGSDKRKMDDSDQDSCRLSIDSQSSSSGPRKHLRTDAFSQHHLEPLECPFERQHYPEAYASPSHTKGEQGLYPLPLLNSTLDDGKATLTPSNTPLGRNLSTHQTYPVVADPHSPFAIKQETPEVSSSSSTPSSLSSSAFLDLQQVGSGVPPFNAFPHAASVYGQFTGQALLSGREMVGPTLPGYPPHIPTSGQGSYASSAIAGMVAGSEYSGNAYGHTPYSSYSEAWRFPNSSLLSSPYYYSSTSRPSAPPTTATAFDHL
# Aurora kinase B, sequence (Q96GD4 whole entry): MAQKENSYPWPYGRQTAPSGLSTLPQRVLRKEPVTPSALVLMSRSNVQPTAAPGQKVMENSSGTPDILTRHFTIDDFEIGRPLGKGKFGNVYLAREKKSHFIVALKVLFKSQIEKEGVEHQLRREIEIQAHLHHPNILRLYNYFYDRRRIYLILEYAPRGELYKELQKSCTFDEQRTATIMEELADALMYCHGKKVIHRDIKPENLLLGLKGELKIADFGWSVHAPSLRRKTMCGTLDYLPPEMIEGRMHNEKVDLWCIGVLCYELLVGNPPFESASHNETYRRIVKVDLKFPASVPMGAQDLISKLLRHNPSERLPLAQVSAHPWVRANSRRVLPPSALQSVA
# FAD-linked sulfhydryl oxidase ALR, sequence (P55789 whole entry, the tested form may be a part): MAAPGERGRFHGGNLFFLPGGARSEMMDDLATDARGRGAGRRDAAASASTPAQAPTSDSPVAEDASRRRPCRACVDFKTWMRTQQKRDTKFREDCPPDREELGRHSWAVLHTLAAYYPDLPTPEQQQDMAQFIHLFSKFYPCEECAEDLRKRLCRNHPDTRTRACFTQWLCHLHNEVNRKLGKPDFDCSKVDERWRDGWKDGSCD
# NAD-dependent protein deacylase sirtuin-5, mitochondrial, sequence (Q9NXA8 whole entry): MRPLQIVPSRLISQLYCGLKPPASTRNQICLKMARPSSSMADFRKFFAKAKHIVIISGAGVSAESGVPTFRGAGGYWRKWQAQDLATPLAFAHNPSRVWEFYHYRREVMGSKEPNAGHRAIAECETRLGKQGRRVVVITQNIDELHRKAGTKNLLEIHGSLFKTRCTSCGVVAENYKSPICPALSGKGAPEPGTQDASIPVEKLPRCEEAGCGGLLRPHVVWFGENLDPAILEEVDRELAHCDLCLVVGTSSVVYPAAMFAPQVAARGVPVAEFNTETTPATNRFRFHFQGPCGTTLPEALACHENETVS
smiles,measurement,setting,value
CCCCn1c(NC(=O)c2ccc(Br)o2)c(C(=O)OCC)c2nc3ccccc3nc21,IC50,[1],> 128 µM (inactive)
CCC1CN(C(=O)N2CCC(C(=O)Nc3ccccc3F)CC2)c2ccccc2O1 (stereo unspecified),AC50,[2],> 30 µM (inactive)
O=C(CSc1ccc(-c2nc3ccccc3[nH]2)cn1)Nc1ccc(S(=O)(=O)N2CCCC2)cc1,IC50,[3],8.73 µM (active)
same,AC50,[4],> 100 µM (inactive)
same,IC50,[5],83.3 µM (inactive)
c1ccc2c(c1)CC1CNCc3cccc(c31)S2 (stereo unspecified),IC50,cells [6],> 29.9 µM (inactive)
same,EC50,cells [7],> 29.9 µM (inactive)
same,EC50,[8],5.87 µM (active)
same,IC50,[9],7.1 µM (active)
O=C(Nc1ccc2[nH]c(O)nc2c1)c1c(F)c(F)c(F)c(F)c1F,EC50,Kallikrein-7,22.9 µM (inactive)
Cc1c(C)c2c(OCC(=O)N[C@@H](CC(C)C)C(=O)O)cc3c(c2oc1=O)CCC(C)(C)O3,EC50,Kallikrein-7,> 69.5 µM (inactive)
COc1cc(/C=C2/SC(=S)N(CC(=O)O)C2=O)ccc1OC(=O)c1ccco1,IC50,[10],4.75 µM (active)
same,AC50,[11],3.74 µM (active)
same,IC50,[12],5.86 µM (active)
Cc1ccc(NC(=O)CNc2ccccc2N2CCCC2=O)cc1S(=O)(=O)N1CCOCC1,AC50,[4],21.8 µM (active)
COCCOC1CCC(n2nc(-c3ccc(Nc4nc5cc(Cl)ccc5o4)c(F)c3)c3c(N)ncnc32)CC1 (stereo unspecified),Ki,Aurora kinase A,0.0398 µM (active)
same,Ki,Aurora kinase B,0.01 µM (active)
C[C@H](O)[C@@H]1C(=O)N2CCc3c([nH]c4ccccc34)[C@@H]2C[C@@H]1N(C)C(=O)NC1CCCCC1,EC50,Kallikrein-7,8.4 µM (active)
C[C@@H]1CCCCO[C@@H](CN(C)Cc2ccc(Cl)c(Cl)c2)[C@@H](C)CN([C@H](C)CO)C(=O)c2cc(NC(=O)c3ccccc3)ccc2O1,AC50,[13],6.25 µM (active)
C[C@H]1CN([C@@H](C)CO)C(=O)Cc2cc(N(C)C)ccc2O[C@@H]1CN(C)Cc1ccc(C(=O)Nc2ccccc2N)cc1,AC50,[13],0.794 µM (active)
CCCCCn1nnnc1-c1nc2cc3ccccc3cc2nc1O,IC50,[10],4.94 µM (active)
same,IC50,[12],1.29 µM (active)
C[C@H]1CN([C@@H](C)CO)C(=O)c2cc(-c3ccc(C#N)cc3)cnc2O[C@H]1CN(C)C(=O)Nc1ccc(C(F)(F)F)cc1,AC50,[14],7.44 µM (active)
C[C@@H]1CN([C@@H](C)CO)C(=O)Cc2cc(NS(=O)(=O)c3ccccc3)ccc2O[C@@H]1CN(C)S(=O)(=O)c1ccc(Cl)cc1,AC50,[13],6.08 µM (active)
C[C@@H]1CN([C@@H](C)CO)C(=O)Cc2cc(NC(=O)CCCCCC(=O)Nc3ccccc3N)ccc2O[C@@H]1CN(C)Cc1ccc(C(F)(F)F)cc1,AC50,[15],18 µM (active)
same,AC50,Paired box protein Pax-8,6.87 µM (active)
same,AC50,[16],45.4 µM (active)
same,AC50,[17],30.1 µM (active)
CC/C(=N\CCc1ccccc1)C1=C(O)CCC1=O,IC50,cells [6],> 29.9 µM (inactive)
same,EC50,cells [7],> 29.9 µM (inactive)
same,EC50,[8],0.351 µM (active)
same,IC50,[9],2.34 µM (active)
COc1ccc(CCNC(=O)/C=C/C(=O)O)cc1,IC50,cells [6],> 29.9 µM (inactive)
same,EC50,cells [7],> 29.9 µM (inactive)
same,EC50,[8],10.4 µM (inactive)
same,IC50,[9],> 29.9 µM (inactive)
